Measurements reported in patent US20230145868A1, “UREA INHIBITORS OF MICRO-RNA” (Board of Regents, The University of Texas System, priority 2020, published 2023).

Legend:
[1] = system: human pre-miR-10b RNA hairpin; assay: NMR detection of compound binding to miRNA
Method: The human pre-miR-10b RNA hairpin sequence (nucleotides 40-75, per miRbase) was transcribed enzymatically and purified using methods previously described. The NMR screening buffer consisted of 20 mM Bis-Tris-d19 at pH 6.5, 10 mM NaCl, 0.2% Tween-20, and 11.1 μM DSA as chemical shift reference (integrates to 100 μM), prepared in 99.99% D2O or 95%H2O/5%D2O. Each ligand was first dissolved in DMSO to a 10 mM stock concentration. Free ligand screening samples were prepared at a final DMSO concentration of […] at a concentration of 100 μM in NMR screening buffer. For RNA target detected experiments, the lyophilized RNA pellets were dissolved in DMSO-free NMR screening buffer and heated for 4 min at 90° C., then snap cooled for 5 min at −20° C. ^1D-^1H experiments for both ligand and RNA were collected using the Bruker “zgesgp” excitation sculpting pulse sequence to suppress background water signal. Data was collected with 64 scans and 16K data points. Data was processed using 16K zero points, then Fourier transformed followed by manual phase and baseline correction. 2D-^1H TOCSY experiments were collected using the Bruker “mlevesgpph” pulse sequence with excitation sculpting water suppression, data collected with 32 scans, 2K×512 data points, a recycle delay of 1.2 s, and spin-lock mixing time of 80 ms. […]

[2] = system: AGS gastric cell line; assay: Annexin V/PI apoptosis assay by flow cytometry, AGS; type: cell-based, human; details: up to 10 μM, 48 h
Method: In 6-well plates, 1×10^5 cells/mL were added into each well. After 24 h, sequential concentrations of DMSO and 4 based were administered and the plates were incubated for 48 h. The supernatant and adherent cells were collected and centrifugated. Each dose was done in triplicate, with each sample composing two wells. For apoptosis analysis, the supernatant was discarded after centrifugation and the pellet washed with PBS twice. Then, BD Annexin V-FITC/PI used to stain the cells for analysis via flow cytometry on the Gallios machine. For cell cycle analysis, after washing with PBS, cells were fixed with ethanol and incubated. They, were treated with RNase enzyme and analyzed.

[3] = system: LN229 cell line; assay: MTS proliferation assay, LN229; type: cell-based, human; details: 5 and 10 μM, beginning at 48 h of treatment
Method: IC50 dose-response curves were determined using the cell proliferation assay system. Briefly, 5,000 or 10,000 cells of each cell line were plated in 96-well microculture plates in replicates of either 4 or 6. When cells became adherent, either 5 or 10 sequentially decreasing doses of the small molecule miRNA inhibitor were diluted into new media and added to individual wells. After either 24 or 48 hours, of a tetrazolium salt such as MTS, MTT, or WST-8 was added to each well at the same time of day as treatment and incubated for either 2 or 3 h at 37° C. The OD, measuring at the appropriate wavelength for the dye, was read at on a microplate spectrophotometer.
Cell proliferation is determined using a colorimetric assay. A tetrazolium salt such as MTS, MTT, or WST-8 is reduced by dehydrogenase activities in cells to give a formazan dye, which is soluble in the tissue culture media. The amount of the formazan dye (generated by the activities of dehydrogenases in cells, and directly proportional to the number of living cells) is measured after 3 h of incubation. The OD is read at 450 nm on a microplate spectrophotometer and growth values (%) are calculated as (OD treated cells/OD untreated cells)×100. The experiments are performed in triplicate. […] The OD is read at 450/550 nm on a microplate spectrophotometer, after one to seven days of the treatment. […]

[4] = system: AsPC1 cell line; assay: Migration assay, AsPC1; type: cell-based, human; details: vs DMSO

SMILES: Cc1ccc(F)c(NC(=O)Nc2ccc(-c3cccc4cn[nH]c34)cc2)c1 [Example 4, 1-(4-(1H-indazol-7-yl)phenyl)-3-(2-fluoro-5-methylphenyl)urea]
- target detect 2D 1H-1H TOCSY, binding to pre-miR-10b ([1]; 50 μM pre-miR-10b titrated with 100 μM, largest shifts U6, U7, U8, U26, C27, C29, U33): directly binds to the hairpin structure of precursor miR-10b
- ligand detected 1D-1H line broadening (peak signal free vs bound) ([1]; ligand with pre-miR-10b sequence, methyl protons, indicative of direct binding): large decrease in peak signal
- apoptotic cells [2]: gradual increase
- proliferation (MTS), every 24 h over 96 h [3]: significant difference in proliferation
- migration [4]: decreased migration
